Where “and” joins values, the source holds several entries; their conditions need not be identical. Equal values may be shown once. Read-outs that look alike come from different tables or passages of the source.
Legend:
[1] = target: T1, HIV-1 protease (Human immunodeficiency virus type 1 group M subtype B, UniProt P04585); assay: biochemical; details: for PROTEASE % INHIB.: Table II, enzyme HIV-1
Outline: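 A substrate biotinylated at the N-terminal arginine and FITC-labelled at the C-terminal lysine was incubated with HIV-1 protease (10 μl of 0.1 μM) and compound for 1 h in the dark at room temperature. Buffer was 0.1 M sodium acetate pH 5.5, 1.0 M NaCl, 0.05% NP-40. Labelled product was separated from substrate using streptavidin beads and filtration, and the fluorescence gave percent inhibition.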

[2] = target: T1, HIV-1 protease; assay: biochemical
Outline: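 Biotinylated, FITC-labelled peptide substrate cleaved in 0.1 M sodium acetate pH 5.5, 1.0 M NaCl, 0.05% NP-40, room temperature. Filtered labelled product read by fluorescence; nonlinear least-squares fit.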

[3] = Table I, Dose 0.123 μM, read-out: Protease % Inhib
[4] = Table I, Dose 0.370 μM, read-out: Protease % Inhib
[5] = Table I, Dose 1.100 μM, read-out: Protease % Inhib
[6] = Table I, Dose 3.300 μM, read-out: Protease % Inhib
[7] = Table I, Dose 10.000 μM, read-out: Protease % Inhib
[8] = Table I, Dose 30.000 μM, read-out: Protease % Inhib
[9] = Table I, read-out: HIV Protease FITC Assay Ki
[10] = read-out: HIV Protease FITC Assay Ki

| SMILES | inhibition at 0.123 µM [1, 3] [%] | inhibition at 0.37 µM [1, 4] [%] | inhibition at 1.1 µM [1, 5] [%] | inhibition at 3.3 µM [1, 6] [%] | inhibition at 10 µM [1, 7] [%] | inhibition at 30 µM [1, 8] [%] | Ki [2, 9] | further results |
| --- | --- | --- | --- | --- | --- | --- | --- | --- |
| O=C(O)c1ccc(S(=O)(=O)Cc2cccc(C(c3c(O)c4c(oc3=O)CCCCCC4)C3CC3)c2)cc1 (stereo not drawn) [Example 14, 3-[cyclopropyl[3-[(4-carboxyphenylsulfonyl)methyl]phenyl]methyl]-5,6,7,8,9,10-hexahydro-4-hydroxy-2H-cycloocta[b]pyran-2-one] | 65.7 | 88 | 96.8 | 96.6 | 102 | 106 | 6.88 nM |  |
| N#Cc1ccc(S(=O)(=O)Cc2cccc(C(c3c(O)c4c(oc3=O)CCCCCC4)C3CC3)c2)cc1 (stereo not drawn) [Example 11, 3-[cyclopropyl[3-[(4-cyanophenylsulfonyl)methyl]phenyl]methyl]-5,6,7,8,9,10-hexahydro-4-hydroxy-2H-cycloocta[b]pyran-2-one] | 78.9 | 95.3 | 100 | 95.1 | 99.7 | 104 | 1.9 nM |  |
| COCCOCCOCCOc1ccc2c(O)c(C(c3cccc(NS(=O)(=O)c4cccc5cccnc45)c3)C3CC3)c(=O)oc2c1 (stereo not drawn) [Example 153, N-(3-{Cyclopropyl-[7-(2-(2-(2-methoxyethoxy)-ethoxy)ethoxy)-4-hydroxycoumarin-3-yl]-methyl}-phenyl)-8-quinolinesulfonamide] | 81.3 | 91.1 | 100 | 104 | 103 | 101 | 1.85 nM |  |
| O=c1oc(C(CC2CC2)CC2CC2)cc(O)c1C(c1cccc(NS(=O)(=O)c2ccccn2)c1)C1CC1 (stereo not drawn) [Example 99, N-(3-{Cyclopropyl-[6-(2-cyclopropyl-1-cyclopropylmethyl-ethyl)-4-hydroxy-2-oxo-2H-pyran-3-yl]-methyl}-phenyl)-2-pyridine-sulfonamide] | 85.7 | 102 | 108 | 100 | 107 | 103 | 0.66 nM |  |
| CC[C@H](Cc1ccccc1)c1cc(O)c(C(c2cccc(NS(=O)(=O)c3ncc[nH]3)c2)C2CC2)c(=O)o1 (stereo partly drawn) [Example 147, N-(3-{Cyclopropyl-[6-(1-(R)-ethylphenethyl)-4-hydroxy-2-oxo-2H-pyran-3-yl]-methyl}-phenyl)-1H-imidazole-2-sulfonamide] | 77.5 | 103 | 112 | 110 | 114 | 108 |  | Ki [2, 10]: 1 nM |
| COCCOCCOCCOc1ccc2c(O)c(C(c3cccc(NS(=O)(=O)c4cn(C)cn4)c3)C3CC3)c(=O)oc2c1 (stereo not drawn) [Example 151, N-(3-{Cyclopropyl-[7-(2-(2-(2-methoxyethoxy)-ethoxy)ethoxy)-4-hydroxycoumarin-3-yl]-methyl}-phenyl)-1-methyl-1H-imidazole-4-sulfonamide] |  |  |  |  |  |  |  | inhibition at 0.123 µM ([1]; read-out: Protease % Inhib): 111%; inhibition at 0.37 µM ([1]; read-out: Protease % Inhib): 115%; inhibition at 1.1 µM ([1]; read-out: Protease % Inhib): 118%; inhibition at 3.3 µM ([1]; read-out: Protease % Inhib): 119%; inhibition at 10 µM ([1]; read-out: Protease % Inhib): 116%; inhibition at 30 µM ([1]; read-out: Protease % Inhib): 115%; Ki ([2]; HIV Protease FITC Assay Ki): 0.36 nM |
| CCCC1(CCC)CC(O)=C(C(c2cccc(NS(=O)(=O)c3ccc(C#N)cc3)c2)C2CC2)C(=O)O1 (stereo not drawn) [Example 50] | 101 | 108 | 113 | 112 | 101 | 84.8 | 1.78 nM |  |
| CCC(CC1CCCOC1)c1cc(O)c(C(c2cccc(NS(=O)(=O)c3cn(C)cn3)c2)C2CC2)c(=O)o1 (stereo not drawn) [Example 145B, N-(3-[Cyclopropyl[4-hydroxy-2-oxo-6-[1-[(tetrahydro-2H-pyran-3-yl)methyl]propyl]-2H-pyran-3-yl]methyl]phenyl]-1-methyl-1H-imidazole-4-sulfonamide] | 81.8 | 88.4 | 96.5 | 87.8 | 102 | 84.5 | 1.24 nM |  |
| CCCC1(CCc2ccccc2)CC(O)=C(C(CC)c2cccc(NS(=O)(=O)c3cccc4cccnc34)c2)C(=O)O1 (stereo not drawn) [Example 42, N-[3-[1-(4-hydroxy-2-oxo-6-phenethyl-6-propyl-5,6-dihydro-2H-pyran-3-yl)-propyl]-phenyl]-8-quinolinesulfonamide] |  |  |  |  |  |  |  | inhibition at 0.123 µM ([1]; read-out: Protease % Inhib): 86.2%; inhibition at 0.37 µM ([1]; read-out: Protease % Inhib): 103%; inhibition at 1.1 µM ([1]; read-out: Protease % Inhib): 98.3%; inhibition at 3.3 µM ([1]; read-out: Protease % Inhib): 102%; inhibition at 10 µM ([1]; read-out: Protease % Inhib): 91.4%; inhibition at 30 µM ([1]; read-out: Protease % Inhib): 76.1%; Ki [2, 10]: 3.1 nM |
| O=c1oc2c(c(O)c1C(c1cccc(NS(=O)(=O)c3ccccn3)c1)C1CC1)CCCCCC2 (stereo not drawn) [Example 239] | 83.6 | 96.6 | 98.4 | 99.5 | 103 | 108 | 1.44 nM and 0.86 nM |  |
| O=c1oc2c(c(O)c1C(c1cccc(CS(=O)(=O)c3ccc(F)cc3)c1)C1CC1)CCCCCC2 (stereo not drawn) [Example 12, 3-[cyclopropyl[3-[(4-fluorophenylsulfonyl)methyl]phenyl]methyl]-5,6,7,8,9,10-hexahydro-4-hydroxy-2H-cycloocta[b]pyran-2-one] | 75.7 | 87.2 | 91.8 | 91.1 | 94.7 | 95.7 | 2.15 nM |  |
| O=c1oc(C(CC2CC2)CC2CC2)cc(O)c1C(c1cccc(NS(=O)(=O)c2nc3ccccc3[nH]2)c1)C1CC1 (stereo not drawn) [Example 101, N-(3-{Cyclopropyl-[6-(2-cyclopropyl-1-cyclopropylmethyl-ethyl)-4-hydroxy-2-oxo-2H-pyran-3-yl]-methyl}-phenyl)-1H-benzo-imidazole-2-sulfonamide] | 70.2 | 84 | 93.3 | 97 | 102 | 97.3 | 0.66 nM |  |
| Cc1ccc(S(=O)(=O)Cc2cccc(C(c3c(O)c4c(oc3=O)CCCCCC4)C3CC3)c2)cc1 (stereo not drawn) [Example 13, 3-[cyclopropyl[3-[(4-methylphenylsulfonyl)methyl]phenyl]methyl]-5,6,7,8,9,10-hexahydro-4-hydroxy-2H-cycloocta[b]pyran-2-one] | 68.9 | 88.1 | 94 | 95.5 | 98.6 | 104 | 4.15 nM |  |
| CCCC1(CCc2ccccc2)CC(O)=C(C(c2cccc(NS(=O)(=O)c3ccc(C(F)(F)F)cn3)c2)C(C)(C)C)C(=O)O1 (stereo not drawn) [Example 293, 5-Trifluoromethyl-N-[3-[1-[5,6-dihydro-4-hydroxy-2-oxo-6-(2-phenethyl)-6-n-propyl-2H-pyran-3-yl]-2,2-dimethylpropyl]-phenyl]-2-pyridinesulfonamide] |  |  |  |  |  |  |  | PROTEASE % INHIB. ([1]; DOSE 0.123 (unit not given)): 53.45%; PROTEASE % INHIB. ([1]; DOSE 0.370 (unit not given)): 77.51%; PROTEASE % INHIB. ([1]; DOSE 1.100 (unit not given)): 94.18%; PROTEASE % INHIB. ([1]; DOSE 3.300 (unit not given)): 103.03%; PROTEASE % INHIB. ([1]; DOSE 10.000 (unit not given)): 97.41%; PROTEASE % INHIB. ([1]; DOSE 30.000 (unit not given)): 92.01%; Ki ([2]; Table II, enzyme HIV-1, read-out: FITC KI): 4.3 nM |
| CCC(CCBr)c1cc(O)c(C(c2cccc(NS(=O)(=O)c3cn(C)cn3)c2)C2CC2)c(=O)o1 (stereo not drawn) [Example 108, N-(3-{[6-(3-Bromo-1-ethyl-propyl)-4-hydroxy-2-oxo-2H-pyran-3-yl]-cyclopropyl-methyl}-phenyl)-1-methyl-1H-imidazole-4-sulfonamide] | 103 | 102 | 102 |  | 108 | 106 | 0.16 nM | inhibition at 3.39 µM ([1]; Table I, Dose 3.390 μM, read-out: Protease % Inhib): 102% |
| CCCC1(CCc2ccccc2)CC(O)=C(C(c2cccc(NS(=O)(=O)c3ccc(F)cc3)c2)C2CC2)C(=O)O1 (stereo not drawn) [Example 59] | 76.7 | 90.5 | 102 | 99.9 | 105 | 102 | 3.5 nM |  |
| CCCC1(CCc2ccccc2)CC(O)=C(C(CC)c2cccc(NS(=O)(=O)c3ccc(C#N)cc3)c2)C(=O)O1 (stereo not drawn) [Example 40, 4-Cyano-N-[3-[1-(4-hydroxy-2-oxo-6-phenethyl-6-propyl-5,6-dihydro-2H-pyran-3-yl)-propyl]-phenyl]-benzenesulfonamide] | 59.6 | 102 | 98.7 | 105 | 88.7 | 72.7 | 10.8 nM |  |
| CCC(Cc1ccccc1)c1cc(O)c(C(c2cccc(NS(=O)(=O)c3ccc([N+](=O)[O-])cc3)c2)C2CC2)c(=O)o1 (stereo not drawn) [Example 150, N-(3-{Cyclopropyl-[6-(1-ethylphenethyl)-4-hydroxy-2-oxo-2H-pyran-3-yl]-methyl}-phenyl)-4-nitrobenzenesulfonamide] | 78.4 | 96.5 | 100 | 103 | 107 | 109 | 5.9 nM |  |
